Experimental data reported in patent publication US11197811B2, “Teeth whitening methods, visually perceptible signals and compositions therefor” (Colgate-Palmolive Company, priority 2012, dated 2021).

What was measured:
[1] = Clarity of gel phase by UV/VIS absorbance; assay type: physicochemical; conditions: original oral gel, 0.5% (w/w) zinc level; for Absorbance: 610 nm, DI water blank
Protocol: Four 500.0 g gel phase batches which contain NaF (control), ZLC, ZnCl2 and ZnO as active ingredient are formulated with the ingredients shown in Table 8. The clarity of samples with different actives is compared, and the precipitation characteristic of ZLC gel phase by dilution is evaluated. The concentration of zinc ions in ZLC solution is 25300 ppm obtained by ICP, which in terms gives approximately 17% weight of ZLC actives in the solution. Zinc ion concentration in the following batches are all prepared at 0.5% (w/w) zinc level.
(§1) Lambda 25 UV/VIS Spectrometer (PerkinElmer) is used to obtain absorbance information for all samples in order to compare the clarity of gel phase between different actives. Absorbance is a logarithmic measure of the amount of light that is absorbed when passing through a substance. Since the particles in the gel absorb light, the more particles existing in solution, the more light absorbed by the gel. Thus, a small number of absorbance of a gel indicates a higher clarity. The absorbance is corrected by using deionized (DI) water as the blank solution under the light source wavelength of 610 nm.

pH of gel phase batches = assay type: physicochemical; conditions: original oral gel batch
[2] = Dilution experiment of gel phase batches (absorbance); assay type: physicochemical; conditions: for Absorbance, 2 fold dilution: gel phase batch diluted 2 fold; for Absorbance, 4 fold dilution: gel phase batch diluted 4 fold; for Absorbance, 8 fold dilution: gel phase batch diluted 8 fold; for Absorbance, 16 fold dilution: gel phase batch diluted 16 fold; for Absorbance, 32 fold dilution: gel phase batch diluted 32 fold
Text: as §1
(§2) Dilution experiment: All original gel phase batch are diluted into 2 fold, 4 fold, 8 fold, 16 fold and 32 fold. […] This observation confirms the formation of precipitate when ZLC gel is being diluted by water. The pHs of 2 fold, 4 fold, 8 fold, 16 fold, and 32 fold diluted ZLC gel solution are 7.71, 7.91, 8.03, 8.12, and 8.14, respectively.

[3] = pH of diluted ZLC gel solution; assay type: physicochemical
Protocol: as §2

[4] = Dilution of neat ZLC solution, flocculation/precipitation monitored; assay type: physicochemical; conditions: 37° C.
Protocol: Various dilutions of ZLC are prepared to evaluate its efficiency in producing visible precipitates and/or flocculation, which can be delivered onto a dental surface (dentine and/or enamel) for whitening benefits.
(§3) A neat solution of ZLC is prepared by 1), reacting 0.5 mole of ZnO powder with 1 mole of lysine HCl in 1 liter of water at room temperature for about 2 hours, and 2) collecting the supernatant through centrifugation followed by filtration using a 0.45 micron membrane. The neat solution has a zinc concentration of 2.39% by weight, and a pH of about 7.03.
(§4) Dilution experiment is conducted by mixing the neat solution with deionized water. The neat solution is diluted by 2×, 4×, 6×, 7×, 8×, 10×, 12×, 16×, 20×, 24×, 28×, and 32×, corresponding to initial zinc concentrations of 1.20%, 0.598%, 0.398%, 0.341%, 0.299%, 0.239%, 0.199%, 0.149%, 0.120%, 0.0996%, 0.0854%, 0.0747%, by weight, respectively. The diluted samples are kept at 37° C., and the rates at which flocculation/precipitation occurred are monitored.

[5] = pH of neat and final diluted ZLC solutions; assay type: physicochemical
Protocol: as §3, §4
pH values of final diluted samples are suitable for oral care applications. […] These pH values are well within the range of 5.5 to 10, which defines the suitable range for oral care formulations.

[6] = Deposition/occlusion assay, confocal imaging; set-up: species or system human; conditions: 0.149% zinc, 1 hour at 37° C.
Protocol: (§5) The deposition/occlusion assay is conducted using human dentine slices and the neat solution of Example 3. The dentine slices are prepared by cutting human tooth into thin dentine sections of about 800 microns in thickness, designating a test side, sanding said test side using a sandpaper of about 600 grit, polishing said test side using a Buehler polishing cloth and 5 micron Buehler aluminum oxide, acid-etching said dentine section in 1% (by weight) citric acid solution for about 20 seconds, sonicating said dentine section for 10 minutes, and storing said dentine section in phosphate buffered saline (PBS, pH 7.4, Gibco Cat. No. 10010).
(§6) For treatment, the neat solution is diluted 16-fold with water, yielding a treatment solution with initial zinc concentration of about 0.149% by weight. The dentine section is immersed in the treatment solution for 1 hour at 37° C. The treated dentine section is then removed from the treatment solution, and rinsed 4 times, each time with 1 mL of PBS. The dentine section is then dried using a paper-based tissue and examined under confocal microscope in both XYZ and XYZ modes. Subsequent treatments are conducted in the same manner.
Progressive deposition and occlusion can be observed via confocal imaging. […] The surface deposits can be 10 microns or more in thickness. […] The surface deposits can be 25 microns or more in thickness.

[7] = Repeated 10 minute treatments of dentine section, confocal imaging; set-up: species or system human; conditions: 10 minutes at 37° C.; for surface deposition on dentine: 0.0747% zinc
Protocol: as §5
A new dentine sections, as prepared following the procedure in Example 4, is repeatedly treated with ZLC dilutions with initial zinc concentration of 0.0747% by weight. […] The dentine section is examined under the confocal microscope after each treatment.

[8] = Spectrophotometric analysis of whitening (CIELAB color reading); set-up: species or system human; conditions: dentine section of Example 4 after third treatment
Protocol: as §6
Spectrophotometric analysis proves the whitening efficacy of the ZLC treatment. After the third treatment, the dentine section of Example 4 is dried and examined under a Spectroshade™ spectrophotometer (Handy Dental Type 71,3000). The treated dentinal area is included and the enamel rim is excluded from the examination and subsequent data processing. The CIELAB color reading is L*=86.6, a*=−1.7, and b*=1.5. A similarly prepared dentine section without treatment yielded a reading of L*=72.5, a*=−1.9, and b*=10.3. It is commonly understood that, by definition, L*=0 means black and L*=100 indicates diffuse white, negative a* value indicates green while positive values indicate magenta, and negative b* values indicate blue and positive values indicate yellow.

Compound: [F-].[Na+] [NaF]
- Absorbance [1]: 0.0344
- pH (pH of gel phase batches): 7.63
- Absorbance, 2 fold dilution [2]: 0.0106
- Absorbance, 4 fold dilution [2]: 0.0104
- Absorbance, 8 fold dilution [2]: 0.0107
- Absorbance, 16 fold dilution [2]: 0.0075
- Absorbance, 32 fold dilution [2]: 0.0137

Compound: [O-2].[Zn+2] [ZnO]
- appearance of gel phase [1]: not dissolved and is suspended in gel phase
- Absorbance [1]: 2.4626
- pH (pH of gel phase batches): 8.30
- Absorbance, 2 fold dilution [2]: 2.4630
- Absorbance, 4 fold dilution [2]: 2.5340
- Absorbance, 8 fold dilution [2]: 2.1883
- Absorbance, 16 fold dilution [2]: 1.8638
- Absorbance, 32 fold dilution [2]: 1.0492

Compound: [Cl-].[Cl-].[Zn+2] [ZnCl2]
- appearance of gel phase [1]: appears cloudy
- Absorbance [1]: 0.9204
- pH (pH of gel phase batches): 5.25
- Absorbance, 2 fold dilution [2]: 0.7315
- Absorbance, 4 fold dilution [2]: 0.3700
- Absorbance, 8 fold dilution [2]: 0.1701
- Absorbance, 16 fold dilution [2]: 0.0570
- Absorbance, 32 fold dilution [2]: 0.0280

Compound: [Zn(C6H14N2O2)2Cl]^+Cl^− [ZLC]
- appearance of gel phase [1]: forms a homogenous solution
- Absorbance [1]: 0.1765
- pH (pH of gel phase batches): 7.37
- Absorbance, 2 fold dilution [2]: 0.1436
- Absorbance, 4 fold dilution [2]: 0.1887
- Absorbance, 8 fold dilution [2]: 0.1860
- Absorbance, 16 fold dilution [2]: 0.1336
- Absorbance, 32 fold dilution [2]: 0.2998
- pH of diluted ZLC gel solution ([3]; 2 fold diluted): 7.71
- pH of diluted ZLC gel solution ([3]; 4 fold diluted): 7.91
- pH of diluted ZLC gel solution ([3]; 8 fold diluted): 8.03
- pH of diluted ZLC gel solution ([3]; 16 fold diluted): 8.12
- pH of diluted ZLC gel solution ([3]; 32 fold diluted): 8.14
- time to some visible flocculation from mixing with water ([4]; initial zinc concentrations 0.149% and 0.199%): ≤ 30 min
- flocculation observed ([4]; one and a half hours after mixing, initial zinc between 0.0747% and 0.239%): visible flocculation
- flocculation observed ([4]; one hour from mixing, initial zinc between 0.0854% and 0.239%): visible flocculation
- flocculation and/or precipitation observed ([4]; total of 19 hours, all samples except initial zinc 1.20%): flocculation and/or precipitation can be observed
- relative amount of precipitates ([4]; total of 19 hours, initial zinc between 0.0747% and 0.239%): the most precipitates
- flocculation observed ([4]; two hours after mixing, initial zinc 0.299%): presence of flocculation
- final pH value of diluted sample ([5]; initial zinc concentration 0.0747%): 7.99
- final pH value of diluted sample ([5]; initial zinc concentration 0.0854%): 8.13
- final pH value of diluted sample ([5]; initial zinc concentration 0.0996%): 8.11
- final pH value of diluted sample ([5]; initial zinc concentration 0.120%): 7.97
- final pH value of diluted sample ([5]; initial zinc concentration 0.149%): 7.99
- final pH value of diluted sample ([5]; initial zinc concentration 0.199 wt %): 6.80
- final pH value of diluted sample ([5]; initial zinc concentration 0.239%): 6.70
- pH of neat solution ([5]; neat solution, zinc concentration 2.39% by weight): about 7.03
- deposition and occlusion on dentine surface ([6]; first treatment): noticeable deposition
- deposition and occlusion on dentine surface ([6]; second treatment): complete surface coverage, including blocking of substantially all tubule openings
- thickness of surface deposits ([6]; second treatment): ≥ 10 microns
- deposition and occlusion on dentine surface ([6]; third treatment): complete surface coverage and complete blocking of tubule openings
- thickness of surface deposits ([6]; third treatment): ≥ 25 microns
- surface deposition on dentine ([7]; after 4 consecutive treatments): significant surface deposition
- surface deposition on dentine ([7]; after 12 consecutive treatments): complete surface coverage
- precipitation by naked eyes during treatment ([7]; initial zinc 0.0747%): no precipitation
- CIELAB color reading L* ([8]; untreated section L*=72.5): 86.6
- CIELAB color reading a* ([8]; untreated section a*=−1.9): −1.7
- CIELAB color reading b* ([8]; untreated section b*=10.3): 1.5
